Measured values published in patent US20230192701A1, “BICYCLIC KINASE INHIBITORS AND USES THEREOF” (iOmx Therapeutics AG, priority 2020, published 2023).
≈ marks a conversion by molar mass, not a printed value. Entries after “also recorded” stand apart in the source; their conditions may differ.

Columns and labels:
[1] = tested on: Caco-2 cells monolayer; assay: CaCo2 permeability and efflux assay; assay type: in vitro ADME; conditions: CaCo2, apical to basal, 120 min
Protocol: (§1) To determine apparent permeability of the compounds an assay using a Caco-2 cells monolayer (cultured for 21d) in a 24-well format (poly carbonate high pore density plate with 0.4 μm pore size and a 0.7 cm2 active membrane area; Millipore) was performed as followed. 800 uL of DMEM was added to the basal compartment of the 24 well-plate and 60000 CaCo2 cells/well were seeded in the apical wells and incubated in a CO2 incubator at 37° C. for proliferation of cells. Apical to Basal permeability was determined by adding 400 uL of test compound to the apical well and 800 uL of HBSS buffer with 2% BSA to the basal well. 25 uL of basal sample was collected after 120 min and processed as stated below. Basal to Apical permeability was determined by adding 800 uL of test compound to basal well and 400 uL of HBSS buffer with 2% BSA to apical well. 25 uL of apical sample was collected after 120 min and processed as stated below. The samples were processed by diluting the donor samples 1:1 with HBSS containing 2% BSA and the receiver samples 1:1 with HBSS buffer. Samples were then precipitated with 200 uL of acetonitrile containing internal standard, vortexed for 5 min at 1000 rpm, and centrifuged at 4000 rpm for 20 min. 150 uL of supernatant was diluted with 150 uL of water and submitted for LC-MS/MS analysis, and Bi-directional (A-B and B-A) apparent permeability (Papp) was calculated.
(§2) LC-MS/MS was performed for all assays using a C18 column (50*4.6 mm, 5 um) for the CaCo2 assay, or a C18 column (50*4.6 mm, 4 um) for the other assays. The mobile phases used were 10 mM Ammonium Acetate with 0.1% Formic acid (aqueous) and 100% Acetonitrile (organic).

[2] = CaCo2 permeability and efflux assay; assay type: in vitro ADME; conditions: human, Caco-2; CaCo2, mean efflux ratio
Protocol: as §1, §2

[3] = tested on: MC38 tumour cells; assay: TNF-sensitised cell viability assay (CellTiter-Glo), MC38; assay type: cell-based, murine; conditions: Mus musculus, MC-38, read-out: MC38 IC50 (at 100 ng/ml rMuTNF); 100 ng/ml rMuTNF, 72 h
Protocol: (§3) Cell viability of HCT116 tumour cells was measured using the CellTiter-Glo (CTG) luminescent cell viability assay (Promega, Madison, USA) according to the manufacturer's protocol. In short, 1×10^3 HCT116 cells were seeded in a 384-well plate for 24 h and subsequently treated with different concentrations of compounds and 10 ng/ml rHuTNF for 72 h at 37° C. and 5% CO2. After incubation, CTG reagent was added to the wells and cells were lysed for 10 min. Read-out was performed using the Tecan reader with 0.1 sec counting time. TNF-induced cell killing in human PANC1 and murine MC38 tumour cells was measured analogously to the assay in human HCT116 cells, except that for the PANC1 assay 100 ng/ml rHuTNF and for the MC38 assay 100 ng/ml rMuTNF were used.

[4] = target: SIK2 (Homo sapiens, UniProt Q9H0K1); assay: radiometric protein kinase assay (33PanQinase Activity Assay), SIK2; assay type: biochemical; conditions: for IC50: ATP 1.0 μM, substrate RBER-CHKtide; for inhibiting SIK2 compared to PY1: in words
Chain of SIK2 (Q9H0K1 whole entry): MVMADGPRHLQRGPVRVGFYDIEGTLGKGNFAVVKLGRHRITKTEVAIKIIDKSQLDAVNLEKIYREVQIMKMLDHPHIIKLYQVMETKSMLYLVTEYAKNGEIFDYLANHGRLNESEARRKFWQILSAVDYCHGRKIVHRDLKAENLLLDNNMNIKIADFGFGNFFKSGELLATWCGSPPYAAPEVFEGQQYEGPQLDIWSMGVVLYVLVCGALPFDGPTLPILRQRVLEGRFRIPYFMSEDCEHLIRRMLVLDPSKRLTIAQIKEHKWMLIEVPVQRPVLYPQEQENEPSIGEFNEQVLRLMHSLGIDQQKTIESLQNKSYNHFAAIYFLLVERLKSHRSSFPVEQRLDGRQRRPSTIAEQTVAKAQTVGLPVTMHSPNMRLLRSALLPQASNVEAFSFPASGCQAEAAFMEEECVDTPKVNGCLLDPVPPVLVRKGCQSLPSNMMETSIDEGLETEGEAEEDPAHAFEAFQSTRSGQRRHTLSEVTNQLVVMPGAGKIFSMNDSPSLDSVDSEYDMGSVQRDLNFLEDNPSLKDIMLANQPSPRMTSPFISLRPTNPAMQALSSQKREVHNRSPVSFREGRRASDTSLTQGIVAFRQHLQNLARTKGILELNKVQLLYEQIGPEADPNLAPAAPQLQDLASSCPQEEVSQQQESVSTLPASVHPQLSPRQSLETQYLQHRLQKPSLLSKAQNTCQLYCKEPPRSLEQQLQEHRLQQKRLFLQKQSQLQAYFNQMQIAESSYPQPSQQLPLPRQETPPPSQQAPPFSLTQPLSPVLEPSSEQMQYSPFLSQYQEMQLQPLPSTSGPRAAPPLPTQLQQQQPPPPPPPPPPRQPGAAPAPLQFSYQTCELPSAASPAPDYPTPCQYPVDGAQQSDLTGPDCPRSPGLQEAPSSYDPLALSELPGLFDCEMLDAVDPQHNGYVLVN
Protocol: (§4) The IC50s of the compounds against the SIK family of protein-serine/threonine kinases (SIK2 and SIK3) were determined as followed. Briefly, a radiometric protein kinase assay (33PanQinase® Activity Assay) was used for measuring the kinase activity of the two protein kinases. The kinase assays were performed in 96-well FlashPlates™ from PerkinElmer (Boston, Mass., USA) in a 50 uL reaction volume. The reaction cocktail was pipetted in four steps in the following order: • […] (standard buffer/[gamma-33P]-ATP) • 10 uL of ATP solution (in water) • 5 uL of test compound (in 10% DMSO) • 20 uL enzyme/substrate mix
(§5) The following amounts of enzyme and applicable substrate were used per well:
(§6) The reaction cocktails were incubated at 30 °C for 60 minutes. The reaction was stopped with 50 uL of 2% (v/v) H3PO4, plates were aspirated and washed two times with 200 μL 0.9% (w/v) NaCl. Incorporation of 33Pi was determined with a microplate scintillation counter (Microbeta, Wallac). All assays were performed with a BeckmanCoulter/SAGIAN™ Core System.

[5] = Kinetic solubility assay; assay type: physicochemical; conditions: aqueous buffer, kinetic from dmso stock; PBS buffer pH 7.4, 1.0% DMSO, 24 h at RT
Protocol: The Kinetic solubility assay was conducted as follows. 4 uL compound of the 50 mM DMSO stock was added to deep well plate containing 396 uL PBS buffer (pH 7.4). The DMSO content in the sample was 1.0%, and the compound concentration 500 μM. The sample plate was vortexed at 800 rpm for 24 h at RT on a thermomixer. At the end of the incubation period, the sample plate was centrifuged at 4000 rpm for 10 mins. 3 uL of supernatant was transferred to well containing 297 uL of ISTD in Acetonitrile water:50:50, v/v and analysed in LC-MS/MS against a calibration curve (CC).

[6] = Human plasma-protein binding (RED method); assay type: in vitro ADME
Protocol: (§7) Human and mice protein plasma binding was determined using the Plasma Protein Binding by RED Method. Briefly, 200 uL of the respective plasma containing the test compound (10 uM) was spiked into the donor well (RED Chamber) of the insert. 350 uL of PBS was spiked into receiver well (white chamber). The plate was incubated at 37° C. in a thermomixer at 400 rpm for 5 hours. The samples were matrix equilibrated with opposite matrix (25 uL blank buffet/Plasma). Matrix matched samples were precipitated with 200 uL of Acetonitrile containing Internal standard. Samples were vortexed at 1000 rpm for 5 min and centrifuged at 4000 rpm for 10 min. The supernatant was diluted 2 folds with water and % bound and unbound protein and % recovery at 5 h was determined by LC-MS/MS.
as §2

[7] = Mouse hepatocyte stability; assay type: in vitro ADME; conditions: mouse hepatocytes, 37°C
Protocol: (§8) Determination of human and mice hepatocyte stability was conducted as follows. 200 uL of the respective hepatocyte cell suspension (2×10e6/ml) was preincubated at 37° C. for 10 min. Then, 200 uL of a 2 uM working stock of the test compound was added to the hepatocyte cell suspension, and the mixture was further incubated at 37° C. and 500 rpm. The reaction was stopped at 30, 60 and 120 min by precipitating 50 uL of the incubation mixture with 200 uL of acetonitrile. Samples were vortexed for 5 min at 1200 rpm and centrifuged at 4000 rpm for 10 min. Intrinsic clearance and half-life were analysed using LC-MS/MS.
as §2

[8] = Human liver microsomal stability; assay type: in vitro ADME; conditions: pH 7.4; human liver microsomes, NADPH, 37°C
Protocol: (§9) Briefly, human and liver microsomal stability was determined by pre-incubation of 2.5 uL compound and 75 uL of the respective liver microsomes in potassium phosphate buffer (pH 7.4) at 37° C. After adding of NADPH as cofactor and further incubation at 37° C. for 60 min, acetonitrile containing internal standard was added, and the sample was vortexed for 5 min at 1200 rpm and then centrifuged 10 min at 4000 rpm.
as §2

[9] = Murine plasma protein binding (RED method); assay type: in vitro ADME; conditions: mouse
Protocol: as §7, §2

[10] = target: SIK3 (Homo sapiens, UniProt Q9Y2K2); assay: radiometric protein kinase assay (33PanQinase Activity Assay), SIK3; assay type: biochemical; conditions: for IC50: ATP 1.0 μM, substrate RBER-CHKtide; for inhibiting SIK3 compared to PY1: in words
Chain of SIK3 (Q9Y2K2 whole entry): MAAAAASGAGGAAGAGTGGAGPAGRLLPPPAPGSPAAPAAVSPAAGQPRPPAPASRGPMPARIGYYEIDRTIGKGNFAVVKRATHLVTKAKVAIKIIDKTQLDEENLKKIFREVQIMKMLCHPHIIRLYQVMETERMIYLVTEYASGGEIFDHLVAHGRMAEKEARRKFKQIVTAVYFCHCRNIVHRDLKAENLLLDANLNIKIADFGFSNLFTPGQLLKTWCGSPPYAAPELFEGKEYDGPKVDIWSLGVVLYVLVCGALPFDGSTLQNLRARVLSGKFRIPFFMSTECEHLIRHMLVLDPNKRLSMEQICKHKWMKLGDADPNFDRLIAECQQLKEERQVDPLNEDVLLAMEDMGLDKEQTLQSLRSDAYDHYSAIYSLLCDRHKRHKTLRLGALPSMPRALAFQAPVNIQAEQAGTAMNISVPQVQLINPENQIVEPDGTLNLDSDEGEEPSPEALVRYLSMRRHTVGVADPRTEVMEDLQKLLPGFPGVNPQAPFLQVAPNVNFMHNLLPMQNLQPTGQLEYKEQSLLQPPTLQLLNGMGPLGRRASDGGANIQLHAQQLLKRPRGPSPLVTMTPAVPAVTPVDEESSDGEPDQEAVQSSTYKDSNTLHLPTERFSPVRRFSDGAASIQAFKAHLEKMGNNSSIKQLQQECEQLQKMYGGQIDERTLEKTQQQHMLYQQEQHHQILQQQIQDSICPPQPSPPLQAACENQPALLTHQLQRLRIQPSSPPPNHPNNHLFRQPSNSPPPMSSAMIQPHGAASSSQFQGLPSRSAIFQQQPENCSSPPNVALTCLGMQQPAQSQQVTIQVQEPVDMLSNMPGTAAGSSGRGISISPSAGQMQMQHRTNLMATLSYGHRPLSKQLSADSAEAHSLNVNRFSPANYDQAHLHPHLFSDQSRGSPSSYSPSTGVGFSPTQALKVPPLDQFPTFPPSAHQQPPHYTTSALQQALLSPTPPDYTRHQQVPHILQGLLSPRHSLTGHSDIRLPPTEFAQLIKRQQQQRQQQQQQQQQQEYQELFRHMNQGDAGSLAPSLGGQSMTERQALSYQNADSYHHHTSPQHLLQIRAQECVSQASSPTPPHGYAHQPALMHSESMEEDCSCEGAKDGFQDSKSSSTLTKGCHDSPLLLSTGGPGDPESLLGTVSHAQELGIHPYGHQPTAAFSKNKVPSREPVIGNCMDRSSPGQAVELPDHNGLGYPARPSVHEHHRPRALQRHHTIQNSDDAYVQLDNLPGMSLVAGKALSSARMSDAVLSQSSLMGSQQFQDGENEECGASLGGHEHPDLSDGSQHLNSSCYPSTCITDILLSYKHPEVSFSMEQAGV
Protocol: as §4, §5, §6

[11] = Mouse liver microsomal stability; assay type: in vitro ADME; conditions: pH 7.4; mouse liver microsomes, NADPH, 37°C
Protocol: as §9, §2

[12] = Human hepatocyte stability; assay type: in vitro ADME; conditions: human hepatocytes, 37°C
Protocol: as §8, §2

[13] = target: 335 wild-type protein kinases; assay: single-point inhibition assays, residual activity (ProQinase Kinase Profiler); assay type: biochemical; conditions: single-point 0.1 uM and 1 uM, 335 kinases
Protocol: Several compounds of Formula (I) described herein were also tested in single-point (0.1 uM and 1 uM) inhibition assays over a diverse set of 335 wild-type protein (ProQinase “Kinase Profiler”; ProQinase, Freiburg, Germany), in which the residual activity of each kinase was determined. […] Secondly, the residual activity of each kinase was compared to other compounds tested (in particular, against the prior art compounds PY1) by use of scatter plots.

[14] = tested on: HCT116 and PANC1; assay: toxicity against the cell lines in the absence of TNF; assay type: cell-based; conditions: 0 ng/mL TNF, up to concentrations of 10 uM
Protocol: Typically, those compounds of Formula (I) tested were less toxic against the cell lines than the prior art compound PY1 when tested (eg, in the absence of TNF), especially against the human cell lines such as HCT116 (data not shown).
as §3

| SMILES | A > B(10 EE-06 cm/s) [1] | efflux ratio at 120 min [2] | IC50 [3] [nM] | IC50 [4] [nM] | inhibiting SIK2 compared to PY1 [4] | solubility kinetic at 24 h [5] [µM] | recovery at 5 h, 10 uM [6] [%] | half-life at 1 uM [7] [min] | half-life [8] [min] | recovery at 5 h, 10 uM [9] [%] | IC50 [10] [nM] | inhibiting SIK3 compared to PY1 [10] | half-life [11] [min] | half-life at 1 uM [12] [min] | kinases inhibited less strongly than by PY1 [13] | kinases inhibited more strongly than by PY1 [13] | overall kinase profile compared to prior art compound PY1 [13] | relevant kinases still potently inhibited [13] | toxicity against the cell lines in the absence of TNF [14] |
| --- | --- | --- | --- | --- | --- | --- | --- | --- | --- | --- | --- | --- | --- | --- | --- | --- | --- | --- | --- |
| COc1ccc(N2C(=O)N(c3c(C(F)F)csc3Cl)Cc3cnc(Nc4ccc(C5CCN(C)CC5)cc4)nc32)nc1 [AA2, 3-(2-chloro-4-(difluoromethyl)thiophen-3-yl)-l-(5-methoxypyridin-2-yl)-7-((4-(l-methylpiperidin-4-yl)phenyl)amino)-3,4-dihydropyrimido[4,5-d]pyrimidin-2(1H)-one] | 12.9 10 EE-06 cm/s | 2.7 | 500 to 1000 | < 50 | superior in inhibiting SIK2 and SIK3 compared to PY1 | 9.1 (≈ 5.57 µg/mL) | 32 | 82 | 12 | 38 | < 50 | superior in inhibiting SIK2 and SIK3 compared to PY1 | 10 | 186 |  |  |  |  |  |
| COc1ccc(N2C(=O)N(c3c(CF)csc3Cl)Cc3cnc(Nc4ccc(C5CCN(C)CC5)cc4)nc32)nc1 [AA3, 3-(2-chloro-4-(fluoromethyl)thiophen-3-yl)-l-(5-methoxypyridin-2-yl)-7-((4-(l-methylpiperidin-4-yl)phenyl)amino)-3,4-dihydropyrimido[4,5-d]pyrimidin-2(1H)-one] | 8.4 10 EE-06 cm/s | 2.9 | 500 to 1000 | < 50 | superior in inhibiting SIK2 and SIK3 compared to PY1 | 9.1 (≈ 5.41 µg/mL) | 34 | 108 | 16 | 45 | < 50 | superior in inhibiting SIK2 and SIK3 compared to PY1 | 20 | 42 | SRMS, NLK, RIPK5, LTK and ALK | TAOK2, SYK, TYRO3, ACVR2B, MEKK2, AXL, ITK, MAP3K11, TRKA, MERTK, ZAP70, and MEKK2, and in particular CSF1R, HCK, TXK, YES, LCK, SRC, EPHA1 and FGR | potent inhibitor of surprisingly more kinases than prior art compound PY1 |  |  |
| COc1ccc(N2C(=O)N(c3c(C)noc3C)Cc3cnc(Nc4ccc(C5CCN(C)CC5)cc4OC)nc32)nc1 [AA5, 3-(3,5-dimethylisoxazol-4-yl)-7-((2-methoxy-4-(1-methylpiperidin-4-yl)phenyl)amino)-1-(5-methoxypyridin-2-yl)-3,4-dihydropyrimido[4,5-d]pyrimidin-2(1H)-one] |  |  |  | 400 to 800 |  |  |  |  |  |  | 800 to 1000 |  |  |  | FYN, BTK, EPHB2, LCK and CSK |  | potently inhibited far fewer kinases than prior art compound PY1 | TXK, ERBB4, EPHB1, FRK, BRK, EPHA4, ACK1, EGFR, EPHA1 and SIK1; also recorded: reasonably potent against CSF1R | essentially non-toxic |
